Reference: US10799536B2, “Method of treating multiple myeloma using natural killer cells expressing a chimeric antigen receptor for CD38” (Onkimmune Limited, priority 2016, dated 2020)
Where two headings read alike, the source gives them in different places.

How the values were obtained:
DR5 [1] = details: for DR5 expression, MFI: 24 hours, FIG. 20
Excerpt: Bortezomib was bought from Millennium Pharmaceuticals.

LIR2 gene = test: gRNA cleavage in K562 cells, T7E1 mismatch detection assay; type: cell-based, human; details: FIG. 6
Protocol: (§1) Cells having inhibitory receptor function removed were prepared as follows. gRNA constructs were designed and prepared to target genes encoding the ‘classical’ inhibitory receptor LIR2 and the ‘checkpoint’ inhibitory receptor CTLA4 in the human genome of NK cells. CRISPR/Cas9 genome editing was then used to knock out the LIR2 and CTLA4 target genes.
(§2) Two gRNA candidates were selected for each target gene and their cleavage efficacies in K562 cells determined.
(§3) K562 cells were transfected with the prepared gRNA constructs (FIG. 5) and subsequently harvested for PCR amplification. The presence of GFP expression was used to report successful incorporation of the gRNA construct into the K562 cells. This confirmed expression of the Cas9 gene and therefore the ability to knock out expression of the LIR2 and CTLA4 genes. The cleavage activity of the gRNA constructs was determined using an in vitro mismatch detection assay. T7E1 endonuclease I recognizes and cleaves non-perfectly matched DNA, allowing the parental LIR2 and CTLA4 genes to be compared to the mutated genes following CRISPR/Cas9 transfection and non-homologous end joining (NHEJ).
The three bands corresponding to each mutation relate to the parental gene (601) and the two resulting strands following detection of a mismatch in the DNA sequence after transfection (602 and 603).

DR4 = DR4 (Homo sapiens, UniProt O00220); details: surface plasmon resonance; WO 2009/077857; cited from earlier work
decoy receptor DcR1 = target: T1, decoy receptor DcR1 (Homo sapiens, UniProt O14798); details: surface plasmon resonance; WO 2009/077857; cited from earlier work
T1 sequence (O14798 26-236): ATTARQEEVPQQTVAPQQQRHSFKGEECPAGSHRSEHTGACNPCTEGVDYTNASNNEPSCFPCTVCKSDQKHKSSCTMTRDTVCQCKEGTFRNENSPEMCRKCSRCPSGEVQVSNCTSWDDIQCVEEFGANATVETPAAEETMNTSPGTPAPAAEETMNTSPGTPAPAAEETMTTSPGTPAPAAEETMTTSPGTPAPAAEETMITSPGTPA

CTLA4 gene = test: gRNA cleavage in K562 cells, T7E1 mismatch detection assay; type: cell-based, human; details: FIG. 7
Protocol: as §1, §2, §3

DR5 [2] = target: DR5 (Homo sapiens, UniProt O14763); details: D269H/E195R mutation, relative to wildtype TRAIL; cited from earlier work
[3] = tested on: decoy receptors (DcR1 and DcR2); details: D269H/E195R mutation, relative to wildtype TRAIL; cited from earlier work

**Q.** Which “DR5 expression, MFI” value (DR5 [1]; MM1.S cells, 2.5 nm of Bortezomib, untreated MFI 214) does the source give for `CC(C)C[C@H](NC(=O)[C@H](Cc1ccccc1)NC(=O)c1cnccn1)B(O)O` [Bortezomib] here?
**A.** The value was 662.

**Q.** What about the “DR5 expression, MFI” value (DR5 [1]; RPMI 8226 cells, 10 nm Bortezomib, untreated MFI 273) of the same molecule?
**A.** Its value is 679.

**Q.** And the “DR5 expression at high doses” value (DR5 [1]; high doses of Bortezomib)?
**A.** Its value is “could not be upregulated”.

**Q.** With “g9 gRNA: gRNA targeting hLIR2, GAGTCACAGGTGGCATTTGGCGG (SEQ ID NO: 24) (listed as DNA, chemistry not fully specified; listed as Homo sapiens)” as the molecule, how does the “success rate of transfection (LIR2 knockout)” value (LIR2 gene) read?
**A.** Its value is 11%.

**Q.** For “g18 gRNA: gRNA targeting hLIR2, CGAATCGCAGGTGGTCGCACAGG (SEQ ID NO: 25) (listed as DNA, chemistry not fully specified; listed as Homo sapiens)”, which “success rate of transfection (LIR2 knockout)” value (LIR2 gene) is on record?
**A.** The value was 10%.

**Q.** What does the source list for “Wildtype TRAIL: TNF-related apoptosis-inducing ligand, wild-type protein”?
**A.** Kd (DR4): > 2 nM; Kd (decoy receptor DcR1): > 20 nM

**Q.** For “g15 gRNA: gRNA targeting hCTLA4, CCTTGTGCCGCTGAAATCCAAGG (SEQ ID NO: 27) (listed as DNA, chemistry not fully specified; listed as Homo sapiens)”, which “success rate of transfection (CTLA4 knockout)” value (CTLA4 gene) is on record?
**A.** Its value is 26%.

**Q.** Which “success rate of transfection (CTLA4 knockout)” value (CTLA4 gene) does the source give for “g7 gRNA: gRNA targeting hCTLA4, CACTCACCTTTGCAGAAGACAGG (SEQ ID NO: 26) (listed as DNA, chemistry not fully specified; listed as Homo sapiens)” here?
**A.** Its value is 32%.

B1: TRAIL variant: TRAIL variant of WO 2009/077857, wildtype TRAIL gene containing the D269H/E195R mutation (protein)
chain: MAMMEVQGGPSLGQTCVLIVIFTVLLQSLCVAVTYVYFTNELKQMQDKYSKSGIACFLKEDDSYWDPNDEESMNSPCWQVKWQLRQLVRKMILRTSEETISTVQEKQQNISPLVRERGPQRVAAHITGTRGRSNTLSSPNSKNEKALGRKINSWESSRSGHSFLSNLHLRNGELVIHEKGFYYIYSQTYFRFQERIKENTKNDKQMVQYIYKYTSYPDPILLMKSARNSCWSKDAEYGLYSIYQGGIFELKENDRIFVSVTNEHLIDMHHEASFFGAFLVG
**Q.** For B1, which “affinity of the TRAIL variant for DR5” value (DR5 [2]) is on record?
**A.** The value was “significantly increases”.

**Q.** And the “affinity for both decoy receptors (DcR1 and DcR2)” value [3]?
**A.** Its value is “reducing”.
